The values that follow are results of earlier work, collected in US7922709B2, “Enhanced delivery of naked DNA to skin by non-invasive in vivo electroporation” (priority 1998, dated 2011).

Consider bleomycin, for which the “log P (partition coefficient between octanol and water)” value was “very negative”.
